Assay results published in patent publication US20170101670A1, “METHOD FOR DETECTING RARE MUTATION” (NATIONAL CANCER CENTER, priority 2015, published 2017).

Tested on: Human TK6 lymphoblasts
Experiment: Induction of point mutation of genomic DNA by mutagen in cultured cells, detected by sequencing 100 copies of genomic DNA
Format: cell-based
Conditions: TK6 cells exposed to 0, 0.1, 0.3, 1, 3, 10 or 30 μM for 24 hours, collected day 7; variants with ratio 0.8 to 10% counted; three independent analyses; FIG. 2
Description: In Example 1, N-nitroso-N-methylurea (hereinafter referred to as “MNU”) that was a mutagen was administered to cultured cells, to induce a point mutation of genomic DNA. Then, mutation was detected by the detection method of this embodiment, and the appearance frequency of the mutation was calculated. This analysis was independently performed three times.
Human TK6 lymphoblasts (hereinafter, referred to as “TK6 cell”) were obtained from American Type Culture Collection. On day 0, 1×10^5 cells of TK6 cells were seeded on a 10 cm plate. On day 1, the TK6 cells were exposed to MNU (Sigma) in a concentration of 0, 0.1, 0.3, 1, 3, 10 or 30 μM for 24 hours. On day 7, the number of cells was counted, and the cells were collected. Then, genomic DNA was extracted by phenol/chloroform method.
The copy number of the extracted genomic DNA was determined quantitatively by real-time PCR using SYBR (registered trademark) green I (BioWhittaker Molecular Applications) and iCycler Thermal Cycler (Bio-Rad Laboratories, Inc.). In the table, “F” means a forward primer, and “R” means a reverse primer. Each sample was measured using three kinds of primers. […]
A sample containing 100 copies of genomic DNA was prepared, based on the measurement result of the copy number. […] The average number of reads of sequencing was 5,000. Among the analyzed 48,587 bases, 15,724 bases were selected. […]

CN(N=O)C(N)=O [MNU, N-nitroso-N-methylurea]
appearance frequency of point mutation (somatic mutation induced by mutagen): correlation between the administration amount of MNU and the accumulation of mutations
